We go through 32 molecules from patent US3995059A, “Pharmaceutical compositions containing fatty acid amide derivatives” (Sumitomo Chemical Company, Limited, priority 1966, dated 1976).

Each structure is given as a SMILES string.

Assay [1] concerns total cholesterol value in the blood serum. Kind of assay: Total cholesterol in blood serum of mice fed a diet enriched with cholesterol and bile acids (Table 1). The assay is classed as in vivo. Particulars: 0.2% in diet, 8 to 12 days; for Serum cholesterol: oral. As for the experimental part:
The effectiveness of the compounds was tested by using mice fed on a specific diet which was enriched with cholesterol and bile acids. […] The amide compound as well was mixed with the specific diet in an amount of 0.2%, and continuously administered orally for 8 to 12 days. Then the total cholesterol value in the blood serum of the animals was evaluated.

The subject of another assay is liver cholesterol. Kind of assay: Liver cholesterol (deposition of cholesterol and fat in the liver) of mice fed a cholesterol-rich diet (Table 1). The assay is classed as in vivo. Particulars: for Liver cholesterol: 0.2% in diet, oral, 8 to 12 days.
Where [2] appears, read: experiment [VIII], control 2652.
[3] abbreviates: experiment [III], control not given.

`CCCCCCCCCCCCCC(=O)NC(C)c1ccccc1` (stereo not drawn) [drawing 10]: the Serum cholesterol in assay [1] (experiment [II], control 521) amounted to 252 mg %. Further, the Liver cholesterol in the assay on liver cholesterol (experiment [II], control 3308) came to 1820 mg/100 g.
Turning to `CCCCC/C=C\C/C=C\CCCCCCCC(=O)NC(C)c1cccc([N+](=O)[O-])c1` (stereo not drawn), the Serum cholesterol in assay [1] (experiment [VIII], control 472) was determined as 287 mg %. This molecule also returned a Liver cholesterol with liver cholesterol (setting [2]) of 992 mg/100 g.
Take `CCCCC/C=C\C/C=C\CCCCCCCC(=O)NC(C)c1ccc(Cl)cc1` (stereo not drawn) [drawing 25]: in assay [1] (experiment [IV], control 595), the Serum cholesterol is given as 217 mg %. The Liver cholesterol with liver cholesterol (experiment [IV], control 3145) stood at 826 mg/100 g.
Take `CC(C)CCCCCCCCCCCCCCC(=O)NC(C)c1ccccc1` (single isomer, unassigned; (-)) [(-) (α-Methylbenzyl)-isostearamide]: in assay [1] (experiment [II], control 521), the Serum cholesterol is given as 246 mg %. The molecule further gave a Liver cholesterol in the assay on liver cholesterol (experiment [II], control 3308) of 777 mg/100 g.
Regarding `CCCCCCCC/C=C\CCCCCCCC(=O)NC(C)c1ccccc1` (single isomer, unassigned; (-)) [(-) (α-Methylbenzyl)-oleamide], in assay [1] (experiment [II], control 521), the Serum cholesterol is recorded as 283 mg %. Also, in the assay with liver cholesterol (experiment [II], control 3308), the Liver cholesterol came to 808 mg/100 g.
Turning to `CCCCCCCC/C=C\CCCCCCCC(=O)NC(C)c1ccc(CC)cc1` (racemic), the Serum cholesterol in assay [1] (experiment [X], control 554) was found to be 304 mg %. Besides, the Liver cholesterol in the assay on liver cholesterol (experiment [X], control 3293) was 1010 mg/100 g.
As to `CC/C=C\C/C=C\C/C=C\CCCCCCCC(=O)NC(CC)c1ccc([N+](=O)[O-])cc1` (stereo not drawn) [drawing 97], the Serum cholesterol in assay [1] (experiment [XI], control 595) was determined as 245 mg %. The molecule further registered a Liver cholesterol with liver cholesterol (experiment [XI], control 3451) of 1004 mg/100 g.
The like results for `CC/C=C\C/C=C\C/C=C\CCCCCCCC(=O)NC(CC)c1ccc(OC)cc1` (stereo not drawn) [drawing 103] were, in that order, 339 mg % and 1620 mg/100 g.
For `CCCCCCCCCCCCCC(=O)NC(C)c1ccccc1` (stereo not drawn) [drawing 9], the Serum cholesterol in assay [1] (experiment [II], control 521) is recorded as 302 mg %. Moreover, the Liver cholesterol in the assay on liver cholesterol (experiment [II], control 3308) is on record as 1620 mg/100 g.
The like results for `CCCCC/C=C\C/C=C\CCCCCCCC(=O)NC(C)c1ccccc1` (single isomer, unassigned; (-)) [(-) (α-Methylbenzyl)-linoleamide] were, in that order, 286 mg % and 908 mg/100 g.
For `CCCCCCCC/C=C\CCCCCCCC(=O)NC(C)c1ccccc1` (stereo not drawn) [drawing 7], in that order: 290 mg % and 815 mg/100 g.
Consider `CCCCC/C=C\C/C=C\CCCCCCCC(=O)NC(C)c1ccc(C)cc1` (stereo not drawn) [drawing 23], for which, in assay [1] (experiment [IV], control 595), the Serum cholesterol is listed as 240 mg %. The molecule also came in with a Liver cholesterol with liver cholesterol (experiment [IV], control 3145) of 828 mg/100 g.
Regarding `CC/C=C\C/C=C\C/C=C\CCCCCCCC(=O)NC(C)c1cccc(Cl)c1` (racemic), the Serum cholesterol in assay [1] (experiment [XI], control 595) is given as 309 mg %. Further, the Liver cholesterol in the assay on liver cholesterol (experiment [XI], control 3451) is 1125 mg/100 g.
As for `CCCCCCCC/C=C\CCCCCCCC(=O)NC(Cc1ccccc1)c1ccccc1` (stereo not drawn) [l- drawing 33], the Serum cholesterol in assay [1] (experiment [V], control 372) came out at 263 mg %. In the assay on liver cholesterol (experiment [V], control 2640), this molecule yielded a Liver cholesterol of 888 mg/100 g.
In turn, `CCCCCCCC/C=C\CCCCCCCC(=O)NC(C)c1ccc(OC)cc1` (stereo not drawn) [drawing 84] yielded a Serum cholesterol in assay [1] (experiment [XI], control 595) of 306 mg %. In addition, the Liver cholesterol in the assay on liver cholesterol (experiment [XI], control 3451) came to 1069 mg/100 g.
On to `CCCCC/C=C\C/C=C\CCCCCCCC(=O)NC(C)c1ccc(C)cc1` (stereo not drawn) [drawing 61], for which the Serum cholesterol in assay [1] (experiment [X], control 554) was 228 mg %. The Liver cholesterol with liver cholesterol (experiment [X], control 3293) was 820 mg/100 g.
`CCCCCCCCCCCCCCCC(=O)NC(C)c1ccccc1` (stereo not drawn) [drawing 11] displayed a Serum cholesterol in assay [1] (experiment [II], control 521) of 300 mg %. The molecule further had a Liver cholesterol in the assay with liver cholesterol (experiment [II], control 3308) of 906 mg/100 g.
`CCC(NC(=O)CCCCCCCCCCCCCCC(C)C)c1ccc(C(C)(C)C)cc1` (stereo not drawn): the Serum cholesterol in assay [1] (experiment [IV], control 595) turned out to be 297 mg %. The molecule further returned a Liver cholesterol in the assay with liver cholesterol (experiment [IV], control 3145) of 905 mg/100 g.
In turn, `CCCCC/C=C\C/C=C\CCCCCCCC(=O)NC(CC)c1ccccc1` (single isomer, unassigned; (-)) [(-) (α-Ethylbenzyl)-linoleamide] registered a Serum cholesterol in assay [1] (experiment [II], control 521) of 251 mg %. The molecule also had a Liver cholesterol in the assay with liver cholesterol (experiment [II], control 3308) of 821 mg/100 g.
In assay [1] (experiment [VIII], control 472), `CCCCCCCC/C=C\CCCCCCCC(=O)NC(C)c1ccccc1[N+](=O)[O-]` (stereo not drawn) came in with a Serum cholesterol of 309 mg %. For the same molecule, in the assay on liver cholesterol (setting [2]), the Liver cholesterol turned out to be 1113 mg/100 g.
`CCCCCC=CCC=CCCCCCCCC(=O)NC(Cc1ccccc1)c1ccccc1` (stereo not drawn) [l- C17 H31 CO] gave a Serum cholesterol in assay [1] (experiment [V], control 372) of 208 mg %. Also, the Liver cholesterol with liver cholesterol (experiment [V], control 2640) is 623 mg/100 g.
In assay [1] (experiment [III], control 471), `CCCCC/C=C\C/C=C\CCCCCCCC(=O)NC(C)c1ccc(Cl)c(Cl)c1` (stereo not drawn) [drawing 18] gave a Serum cholesterol of 315 mg %. This molecule registered a Liver cholesterol with liver cholesterol (setting [3]) of 856 mg/100 g.
`CCCCCC=CCC=CCCCCCCCC(=O)NC(Cc1ccccc1)c1ccccc1` (stereo not drawn) [C17 H31 CO] yielded a Serum cholesterol in assay [1] (experiment [V], control 372) of 214 mg %. In addition, the Liver cholesterol in the assay with liver cholesterol (experiment [V], control 2640) is on record as 544 mg/100 g.
Molecule `CCCCCCCC/C=C\CCCCCCCC(=O)NC(CC)c1cccc([N+](=O)[O-])c1` (stereo not drawn) [drawing 82] registered a Serum cholesterol in assay [1] (experiment [XI], control 595) of 315 mg %. Moreover, the Liver cholesterol in the assay on liver cholesterol (experiment [XI], control 3451) is on record as 1125 mg/100 g.
For the molecule `CCCCC/C=C\C/C=C\CCCCCCCC(=O)O` [Linoleic acid, reference compound], the Serum cholesterol in assay [1] (experiment [II], control 521) was determined as 329 mg %; in assay [1] (experiment [I], control 546), 324 mg %; in assay [1] (experiment [VII], control 508), 341 mg %; in assay [1] (experiment [V], control 372), 351 mg %. Also, the “ineffective cases and variation of effectiveness” value in assay [1] (mice) was “ineffective cases were sometimes observed due to the individual difference of the animals, and the effectiveness varied considerably even in the same individual animal”. In the assay with liver cholesterol (animals fed on a diet rich in cholesterol), the “prevention of deposition of cholesterol and fat in the liver” value was “such effectiveness is never observed”. In addition, the Liver cholesterol is on record as 4491 mg/100 g in the assay with liver cholesterol (experiment [II], control 3308); 4585 mg/100 g in the assay on liver cholesterol (experiment [I], control 3585); 4550 mg/100 g in the assay with liver cholesterol (experiment [VII], control 3535); 3124 mg/100 g in the assay with liver cholesterol (experiment [V], control 2640).
`CCCCCCCC/C=C\CCCCCCCC(=O)NC(Cc1ccccc1)c1ccccc1` (stereo not drawn) [drawing 33]: the Serum cholesterol in assay [1] (experiment [V], control 372) came out at 245 mg %. Further, the Liver cholesterol with liver cholesterol (experiment [V], control 2640) is listed as 831 mg/100 g.
Molecule `CCCCC/C=C\C/C=C\CCCCCCCC(=O)NC(CC)c1ccccc1` (stereo not drawn) [drawing 13] gave a Serum cholesterol in assay [1] (experiment [II], control 521) of 274 mg %. Moreover, the Liver cholesterol in the assay on liver cholesterol (experiment [II], control 3308) was determined as 992 mg/100 g.
For `CC/C=C\C/C=C\C/C=C\CCCCCCCC(=O)NC(CC)c1ccc(OC)cc1` (racemic), the Serum cholesterol in assay [1] (experiment [XI], control 595) is 325 mg %. Moreover, the Liver cholesterol in the assay with liver cholesterol (experiment [XI], control 3451) came out at 1450 mg/100 g.
The like results for `CCCCCCCC/C=C\CCCCCCCC(=O)N(C1CCCCC1)C1CCCCC1` were, in that order, 309 mg % and 929 mg/100 g.
`CC/C=C\C/C=C\C/C=C\CCCCCCCC(=O)NC(CC)c1ccccc1[N+](=O)[O-]` (stereo not drawn) returned a Serum cholesterol in assay [1] (experiment [VIII], control 472) of 300 mg %. In the assay with liver cholesterol (setting [2]), this molecule showed a Liver cholesterol of 1091 mg/100 g.
Regarding `CCCCC/C=C\C/C=C\CCCCCCCC(=O)NC(C)c1ccc(Cl)cc1` (stereo not drawn) [drawing 17], the Serum cholesterol in assay [1] (experiment [III], control 471) is 225 mg %. Besides, in the assay on liver cholesterol (setting [3]), the Liver cholesterol stood at 946 mg/100 g.
Molecule `CCCCCC=CCC=CCCCCCCCC(=O)NC(Cc1ccccc1)c1ccccc1` (stereo not drawn) [d- C17 H31 CO] had a Serum cholesterol in assay [1] (experiment [V], control 372) of 200 mg %. Besides, the Liver cholesterol in the assay on liver cholesterol (experiment [V], control 2640) is reported as 500 mg/100 g.
